In PMC10555500, “Evaluation of the Antiproliferative Properties of CpRu Complexes Containing N-Methylated Triazaphosphaadamantane Derivatives” (Bioinorganic Chemistry and Applications, 2023):

Tested on: MDA-MB-231 cells
Experiment: Complex uptake and subcellular distribution by ICP-MS
Type: cell-based, human
Conditions: MDA-MB-231, ICP-MS 106Pd
Experimental: For the cellular uptake experiments, MDA-MB-231 cells (approx. 5·10^6 cells/5 mL medium) were exposed to the complexes at their respective IC50 concentrations and in two conditions (6 h and 24 h of incubation time) and then washed with ice-cold PBS and centrifuged to obtain a cellular pellet. The cytosol, membrane/particulate, cytoskeletal, and nuclear fractions were extracted using a FractionPREP™ cell fractionation system (BioVision, USA) and performed according to the manufacturer's protocol. The Ru (^101Ru) and Pd (^106Pd) contents in different fractions were measured by using Thermo X-Series Quadrupole ICP-MS (Thermo Scientific) after the digestion of the samples. Briefly, the samples were digested with ultrapure HNO3 (65%), H2O2, and H3PO4 in a closed pressurized microwave digestion unit (Mars5, CEM) with medium-pressure HP500 vessels and then diluted in ultrapure water to obtain 2.0% (v/v) nitric acid. The instrument was tuned using a multielement ICP-MS 71C standard solution (Inorganic Venture). Indium (115In) at […] was used as the internal standard.
For the cellular uptake experiments, MDA-MB-231 cells (approx. 5·10^6 cells / 5 mL medium) were exposed to the complexes at their respective IC50 concentrations and at two conditions (6 h and 24 h of incubation time)., then washed with ice-cold PBS and centrifuged to obtain a cellular pellet.[7] […]

## CN1CN2CN(C)C[P]([Ru+2]([P](c3ccccc3)(c3ccccc3)c3ccccc3)[P](c3ccccc3)(c3ccccc3)c3ccccc3)(C1)C2.O=S(=O)([O-])C(F)(F)F.[Cl][Pd][Cl].c1cc[cH-]c1 [Compound 11, [RuCp(PPh3)2-µ-dmoPTA-1κP-2κ^2N,N′-PdCl2](CF3SO3)]
  Pd amount in the membranes: only residual
